Assay results as given in publication PMC3715397 (Bioorganic & medicinal chemistry, 2013).
Entries after “also recorded” stand apart in the source; their conditions may differ.

Target: M. ramosa APAH (Mycoplana ramosa, UniProt Q48935)
Assay: Fluorimetric APAH inhibition assay
Assay type: biochemical
Details: for Inhibitory potency against APAH, IC50 range in words: qualitative range stated in text

M. ramosa APAH, sequence (Q48935 whole entry): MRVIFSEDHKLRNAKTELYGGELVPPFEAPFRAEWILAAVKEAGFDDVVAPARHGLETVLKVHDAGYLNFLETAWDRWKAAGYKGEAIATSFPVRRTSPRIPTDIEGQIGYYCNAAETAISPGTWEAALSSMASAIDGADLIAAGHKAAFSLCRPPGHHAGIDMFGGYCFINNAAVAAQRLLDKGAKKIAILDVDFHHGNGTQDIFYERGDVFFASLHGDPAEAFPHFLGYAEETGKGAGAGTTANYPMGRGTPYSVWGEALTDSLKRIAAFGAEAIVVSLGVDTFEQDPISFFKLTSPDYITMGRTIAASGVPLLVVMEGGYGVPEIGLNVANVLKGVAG

Cl.Cl.NCCCNCCCCCS [VIII, 5-[(3-aminopropyl)amino]pentane-1-thiol dihydrochloride]
Inhibitory potency against APAH, IC50 range in words: mid-micromolar range

CC(=O)CCCCCNCCCN.Cl.Cl [II, 7-[(3-aminopropyl)amino]heptan-2-one dihydrochloride]
Inhibitory potency against APAH, IC50 range in words: mid-micromolar range

COCC(=O)CCCCCNCCCN.Cl.Cl [VI, 7-[(3-aminopropyl)amino]-1-methoxyheptan-2-one dihydrochloride]
Inhibitory potency against APAH, IC50 range in words: mid-micromolar range

Cl.Cl.NCCCNCCCCCC(=O)C(F)(F)F [IV, 7-[(3-aminopropyl)amino]-1,1,1-trifluoroheptan-2-one dihydrochloride]
IC50: 38 µM
Inhibitory potency against APAH, IC50 range in words: nanomolar range; also recorded: nanomolar inhibitory potency

CC(=O)SCC(=O)CCCCCNCCCN.Cl.Cl [V, 7-{[(3-aminopropyl)amino]-2-oxoheptyl} thioacetate dihydrochloride]
IC50: 4000 µM
Inhibitory potency against APAH, IC50 range in words: mid-micromolar range

Cl.Cl.NCCCNCCCCCC(=O)O [I, 6-[(3-aminopropyl)amino]hexanoic acid dihydrochloride]
Inhibitory potency against APAH, IC50 range in words: millimolar range

Cl.Cl.NCCCNCCCCCC(=O)NO [III, 6-[(3-aminopropyl)amino]-N-hydroxyhexanamide dihydrochloride]
Inhibitory potency against APAH, IC50 range in words: nanomolar range; also recorded: nanomolar inhibitory potency

Cl.Cl.NCCCNCCCCCB(O)O [X, 5-[(3-aminopropyl)amino]pentylboronic acid dihydrochloride]
Inhibitory potency against APAH, IC50 range in words: mid-micromolar range

CS(=O)(=O)CCCCCNCCCN.Cl.Cl [IX, N^1-[5-(methylsulfonyl)pentyl]propane-1,3-diamine dihydrochloride]
Inhibitory potency against APAH, IC50 range in words: millimolar range

CC(=O)SCCCCCNCCCN.Cl.Cl [VII, S-{5-[(3-aminopropyl)amino]pentyl} thioacetate dihydrochloride]
Inhibitory potency against APAH, IC50 range in words: millimolar range
